Laboratory results reported in patent US20110053773A1, “METHODS OF IMPROVING NUTRITIONAL VALUE OF PLANTS” (UNIVERSITY OF TENNESSEE RESEARCH FOUNDATION, priority 2009, published 2011).

Tests used:
[1] = system: basil 'Genovese'; test: Content analysis of basil: protein, minerals (Example 4, Tables 10-11); assay type: in vivo; settings: 28 DA-A
In short: (§1)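 Plants received postemergence sprays of one insecticide, one fungicide, two PGRs or two safeners in the greenhouse. About 4 weeks later they were harvested, and replicates were pooled for laboratory content analysis. Injury was rated visually on a 0–100% scale.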

[2] = system: kale 'Red Russian'; test: Visual injury of kale after insecticide, fungicide, PGRs, safeners (Example 4)
In short: (§2)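 Greenhouse postemergence applications of chlorpyrifos, chlorothalonil, mepiquat-chloride, paclobutrazol, napthalic anhydride or isoxadifen-ethyl. Visual injury (phytotoxicity, chlorosis, stunting) scored 0–100%, 0 = no response, 100 = plant death. Harvest about 4 weeks after treatment; replicates pooled for protein, mineral, amino acid, fiber and fatty acid analysis.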

[3] = system: kale ‘Red Russian’; test: Yield, fresh weight of kale after insecticide, fungicide and PGRs (Example 4, Table 12); assay type: in vivo; settings: 28 DA-A, Untreated Check 106.9
In short: as §1

[4] = system: kale 'Red Russian'; test: Content analysis of kale: protein, amino acids, fiber, fatty acids, minerals (Example 4, Tables 12-14); assay type: in vivo; settings: 28 DA-A, first-listed rate g ai/ha: chlropyrifos ###, chlorothalonil ###, paclobutrazol 3.2, mepiquat-chloride 12, + NIS 0.3 % v/v
In short: as §2

[5] = rates g ai/ha: chlroprifos 3370, chlorothalonil 7900, paclobutrazol 9.7, mepiquat-chloride 37, Isoxadifen 16, Napthalic anhydride 527, + NIS 0.25 % v/v
[6] = rates g ai/ha: chlropyrifos 1120, chlorothalonil 2630, paclobutrazol 3.23, mepiquat-chloride 12.3, Isoxadifen 8, Napthalic anhydride 264, + NIS 0.25 % v/v
[7] = 7 DA-A, rates g ai/ha: chlropyrifos 1120, chlorothalonil 2630, paclobutrazol 3.23, mepiquat-chloride 12.3, + NIS 0.25 % v/v
[8] = 7 DA-A, rates g ai/ha: chlropyrifos 3370, chlorothalonil 7900, paclobutrazol 9.7, mepiquat-chloride 37, + NIS 0.25 % v/v
[9] = 14 DA-A, rates g ai/ha: chlropyrifos 1120, chlorothalonil 2630, paclobutrazol 3.23, mepiquat-chloride 12.3, + NIS 0.25 % v/v
[10] = 14 DA-A, rates g ai/ha: chlropyrifos 3370, chlorothalonil 7900, paclobutrazol 9.7, mepiquat-chloride 37, + NIS 0.25 % v/v
[11] = 28 DA-A, rates g ai/ha: chlropyrifos 1120, chlorothalonil 2630, paclobutrazol 3.23, mepiquat-chloride 12.3, + NIS 0.25 % v/v
[12] = 28 DA-A, rates g ai/ha: chlropyrifos 3370, chlorothalonil 7900, paclobutrazol 9.7, mepiquat-chloride 37, + NIS 0.25 % v/v

CC(C)(C)[C@@H](O)[C@@H](Cc1ccc(Cl)cc1)n1cncn1 (racemic) [paclobutrazol]
ADF, Percent Increase Over the Untreated Check (on a % dry matter basis) [1, 5]: −12 % check
Calcium, Percent Increase Over the Untreated Check (on a % dry matter basis) [1, 5]: −18 % check
Copper, Percent Increase Over the Untreated Check (on a % dry matter basis) [1, 5]: −25 % check
Iron, Percent Increase Over the Untreated Check (on a % dry matter basis) [1, 5]: 4 % check
Magnesium, Percent Increase Over the Untreated Check (on a % dry matter basis) [1, 5]: −9 % check
Manganese, Percent Increase Over the Untreated Check (on a % dry matter basis) [1, 5]: −12 % check
NDF, Percent Increase Over the Untreated Check (on a % dry matter basis) [1, 5]: −8 % check
Phosphorous, Percent Increase Over the Untreated Check (on a % dry matter basis) [1, 5]: 0 % check
Potassium, Percent Increase Over the Untreated Check (on a % dry matter basis) [1, 5]: −5 % check
Protein, Percent Increase Over the Untreated Check (on a % dry matter basis) [1, 5]: −9 % check
Sodium, Percent Increase Over the Untreated Check (on a % dry matter basis) [1, 5]: −17 % check
Soluble protein, Percent Increase Over the Untreated Check (on a % dry matter basis) [1, 5]: 12 % check
Zinc, Percent Increase Over the Untreated Check (on a % dry matter basis) [1, 5]: −8 % check
ADF, Percent Increase Over the Untreated Check (on a % dry matter basis) [1, 6]: 7 % check
Calcium, Percent Increase Over the Untreated Check (on a % dry matter basis) [1, 6]: −2 % check
Copper, Percent Increase Over the Untreated Check (on a % dry matter basis) [1, 6]: 8 % check
Iron, Percent Increase Over the Untreated Check (on a % dry matter basis) [1, 6]: 63 % check
Magnesium, Percent Increase Over the Untreated Check (on a % dry matter basis) [1, 6]: −8 % check
Manganese, Percent Increase Over the Untreated Check (on a % dry matter basis) [1, 6]: 26 % check
NDF, Percent Increase Over the Untreated Check (on a % dry matter basis) [1, 6]: 7 % check
Phosphorous, Percent Increase Over the Untreated Check (on a % dry matter basis) [1, 6]: 2 % check
Potassium, Percent Increase Over the Untreated Check (on a % dry matter basis) [1, 6]: −1 % check
Protein, Percent Increase Over the Untreated Check (on a % dry matter basis) [1, 6]: 6 % check
Sodium, Percent Increase Over the Untreated Check (on a % dry matter basis) [1, 6]: −25 % check
Soluble protein, Percent Increase Over the Untreated Check (on a % dry matter basis) [1, 6]: 50 % check
Zinc, Percent Increase Over the Untreated Check (on a % dry matter basis) [1, 6]: 28 % check
Phytotoxicity Chlorosis [2, 7]: 1%
Phytotoxicity General [2, 7]: 10%
Phytotoxicity Stunting [2, 7]: 6%
Phytotoxicity Chlorosis [2, 8]: 0%
Phytotoxicity General [2, 8]: 9%
Phytotoxicity Stunting [2, 8]: 11%
Phytotoxicity Chlorosis [2, 9]: 10%
Phytotoxicity General [2, 9]: 3%
Phytotoxicity Stunting [2, 9]: 19%
Phytotoxicity Chlorosis [2, 10]: 16%
Phytotoxicity General [2, 10]: 6%
Phytotoxicity Stunting [2, 10]: 28%
Phytotoxicity Chlorosis [2, 11]: 3%
Phytotoxicity General [2, 11]: 3%
Phytotoxicity Stunting [2, 11]: 21%
Phytotoxicity Chlorosis [2, 12]: 0%
Phytotoxicity General [2, 12]: 4%
Phytotoxicity Stunting [2, 12]: 19%
Yield Fresh weight ([3]; rates g ai/ha: chlropyrifos 1120, chlorothalonil 2630, paclobutrazol 3.23, mepiquat-chloride 12.3, + NIS 0.25 % v/v): 107.2 grams
Yield Fresh weight ([3]; rates g ai/ha: chlropyrifos 3370, chlorothalonil 7900, paclobutrazol 9.7, mepiquat-chloride 37, + NIS 0.25 % v/v): 108.3 grams
Alanine, Percent Increase over the Untreated Check (on a % dry matter basis) [4]: −9 % check
Aspartic acid, Percent Increase over the Untreated Check (on a % dry matter basis) [4]: −9 % check
Cysteine, Percent Increase over the Untreated Check (on a % dry matter basis) [4]: −6 % check
Glutamic acid, Percent Increase over the Untreated Check (on a % dry matter basis) [4]: −5 % check
Glycine, Percent Increase over the Untreated Check (on a % dry matter basis) [4]: −12 % check
Iso-leucine, Percent Increase over the Untreated Check (on a % dry matter basis) [4]: −6 % check
Leucine, Percent Increase over the Untreated Check (on a % dry matter basis) [4]: −7 % check
Lysine, Percent Increase over the Untreated Check (on a % dry matter basis) [4]: −8 % check
Methionine, Percent Increase over the Untreated Check (on a % dry matter basis) [4]: −13 % check
Proline, Percent Increase over the Untreated Check (on a % dry matter basis) [4]: −4 % check
Threonine, Percent Increase over the Untreated Check (on a % dry matter basis) [4]: −9 % check
Total Amino acids, Percent Increase over the Untreated Check (on a % dry matter basis) [4]: −8 % check
